Among the data in patent publication US20240415819A1, “MACROCYCLIC COMPOUNDS AS PROTEASOME SUBUNIT BETA TYPE-5 INHIBITORS” (Lead Discovery Center GmbH, priority 2021, published 2024) are IC50 values, retold here.

Bounds are passed on as bounds.

Assay [1] concerns HT-29 cells. Put plainly: CellTiter-Glo luminescent cell viability assay with HT-29 cells (72h incubation). The assay is classed as cell-based, human. To be noted: Homo sapiens, HT-29, HT29 cells, read-out: CTG HT29. A digest of the protocol:
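400 cells per well in DMEM/10% FCS were dosed after 24 h and kept 72 h at 37 °C, 5% CO2. ATP-based luminescence (CellTiter-Glo) normalized to DMSO and 10 μM staurosporine controls; IC50 by dose-response fit.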
For orientation: ATP-based viability assays read luminescence as a measure of living cells.

In assay [2] the test system is hPMBC. Description: Chymotrypsin-like ProteasomeGlo assay in hPBMC. The assay is classed as cell-based. As to conditions: Homo sapiens; read-out: Pglo hPBMC. The source says: Chymotrypsin-like ProteasomeGlo assay in the B-cells isolated from PBMC's following compound addition (IC50). • 1. PBMC's will be isolated from human blood followed by B-cell isolation from the PBMC's using the Miltenyi Isolation Kit. • 2. This experiment will use the Chymotrypsin-like ProteasomeGlo read-out to generate IC50's following compound treatment. • 3. Dilute all compounds 1:100 for the assay. • 4. […] Repeat the DMSO transfer with lane 12. • 5. Lane 12 should not be seeded with any cells. Only medium! • 6. For all steps, make sure the samples and reagents remain cool! • 7. While dealing with the buffy coats, be careful to not let any exposed skin to be in direct contact with the blood.
For the initial steps and to make processing the buffy coats easier, separately process the buffy coats. • a. Cut the tube attached to the buffy coats carefully using a clean, sterile and fresh scalpel. • b. Transfer the blood into 2 individual 50 ml falcons. • c. Add an equal volume of DPBS to the blood in the falcons. • d. Add ˜20 ml of lymphocyte separating medium to two 50 ml falcons. • e. Carefully pour 15-20 ml of the blood+DPBS mix from step c. onto the lymphocyte separating medium from step d. • f. Centrifuge the falcons with the lymphocyte separating medium+blood mix at 800×g for 15 minutes using a swing-out rotor. • g. Following centrifugation, carefully remove the falcons from the centrifuge. • h. The following layers will be observed: • i. Aspirate the plasma layer off carefully without disturbing the different layers. • j. Remove the cell pellet using a pipette into two fresh 50 ml falcons. • k. Fill the falcons with the cells up to 50 ml with DPBS. • l. Centrifuge the falcons at 250×g for 10 minutes using a swing-out rotor (Brake-off). • m. Aspirate the complete DPBS off the cells without disturbing the cell pellet at the bottom of the falcon. • n. Re-suspend the cell pellet in 10 ml of 1×RBC lysis buffer. • o. Incubate the falcons at room temperature in the dark for 10 minutes. • p. After RBC lysis, centrifuge the tubes at 250×g for 10 minutes using a swing-out rotor (brake-off). • (*Note: If the cell pellet is still red or light red, repeat steps n. to p.!) • q. Re-suspend the cell pellet in DPBS up to 50 ml in the falcon. • r. Centrifuge the falcons at 250×g for 10 minutes using a swing-out rotor (Brake-off). • s. Aspirate the DPBS off the cells without disturbing the cell pellet at the bottom of the falcon. • t. Repeat the wash step as described in steps q. to s. 2× times more (total number of washes is 3×). • u. Aspirate the DPBS completely off the cell pellet after the last wash without disturbing the cell pellet. • v. Re-suspend the cell pellet in 20 ml of PBMC cell medium. • w.
• a. Remove the plates with cells from the incubator. • b. Take all the plates including the compound plate, intermediate plate and Staurosporine plate to the ECHO. • c. Click on “Open” in the ECHO software and select the protocol “QLI5_25ul_30 uM-Grenier”. • d. Follow the on-screen prompts and instructions once you click “Start” to insert the compound plate, intermediate plate and destination plates. • e. Change the final number of destination plates on the program. • f. Follow the on-screen prompts and instructions once you click “Start” to load the Staurosporine and destination plates. • g. Once all the compounds, DMSO and Staurosporine have been transferred, place the destination plates in a wet tissue box. • h. Place the destination plates back into the incubator and incubate at 37° C., 5% CO2 for 105 minutes. • i. Re-seal all the compound+Stauro diamond and intermediate plates and store in the dark. Chymotrypsin like ProteasomeGlo Assay • 1. Thaw the components of the ProteasomeGlo assay at room temperature including the ProteasomeGlo Buffer, the lyophilized Luciferin Detection Reagent and the Suc-LLVY-Glo Substrate. • 2. […]

In assay [3] the test system is A549 (human lung carcinoma cell line). Description: Glo assay of A549 cells (Table 3; ProteasomeGlo plating scheme). Format: cell-based. To be noted: Homo sapiens; A549 cells; read-out: PGLo A549. A digest of the protocol:
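After acoustic compound transfer, plates incubate 105 min (37° C., 5% CO2). Proteasome-Glo reagent containing Suc-LLVY-Glo substrate is added, plates are shaken, then luminescence is measured after 10-15 min to derive IC50 [nM]. Staurosporine and DMSO serve as controls.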

Assay [4] concerns the target T1, β5 subunit of the human constitutive proteasome (CPS) (Homo sapiens, UniProt P28074).
T1 construct: purchased Boston Biochem E-360
Put plainly: β5 inhibition assay, human constitutive proteasome (Suc-LLVY-AMC). Format: biochemical. To be noted: IC50 class, Suc-LLVY-AMC substrate. As for the experimental part:
The enzymatic activity of the β5 subunit of the human constitutive proteasome (CPS) is analyzed. In another assay, which differs from the assay of the human constitutive proteasome only in using the human immunoproteasome (IPS) the enzymatic activity of the β5 subunit of the human immunoproteasome (IPS) is analyzed. […] Inhibition is indicated as IC50 [nM] (“-”=not measured).

For assay [5], the target named is T2, β5 subunit of the human immunoproteasome (IPS) (Homo sapiens, UniProt P28062).
T2 construct: purchased Boston Biochem E-370
Description: β5 inhibition assay, human immunoproteasome (Suc-LLVY-AMC). Format: biochemical. To be noted: IC50 class, Suc-LLVY-AMC substrate. The method in brief: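 Human immunoproteasome (1 nM final) was preincubated 10 min at RT with compound in 100 mM HEPES pH 7.5, 50 mM NaCl, 0.02% SDS, 1 mM DTT. Suc-LLVY-AMC (22.6 μM final) was then added for 4 h at RT in the dark. After stopping with 1 μM bortezomib, AMC fluorescence was read (ex 355/em 460 nm).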

Take `CC(=O)N[C@H]1CC(=O)N2CCC2(C)COc2ccc(C)c(c2)CNC(=O)[C@H](CCc2ccccc2)NC1=O` (stereo partly drawn) [Compound 260, N-((8S,11S)-1^2,4^4-dimethyl-7,10,13-trioxo-8-phenethyl-3-oxa-6,9-diaza-1(2,1)-azetidina-4(1,3)-benzenacyclotridecaphane-11-yl)acetamide]: the IC50 is 100 to 500 nM in assay [1] and over 5 µM in assay [2].
In the case of `Cc1ccc2cc1CNC(=O)[C@H](CCc1ccccc1)NC(=O)[C@@H](NC(=O)OCc1ccccc1)CCCC(=O)N1CCC(CO2)C1` (stereo partly drawn) [Compound 351, benzyl ((8S, 11S)-4^4-methyl-7,10,15-trioxo-8-phenethyl-3-oxa-6,9-diaza-1(3,1)-pyrrolidina-4(1,3)-benzenacyclopentadecaphane-11-yl)carbamate], the IC50 in assay [1] was 100 to 500 nM; in assay [3], 100 to 500 nM; in assay [2], under 0.1 µM.
With `CC(=O)N[C@H]1CC(=O)N2CCCC(COc3ccc(C)c(c3)CNC(=O)[C@H](CCc3ccccc3)NC1=O)C2` (stereo partly drawn) [Compound 257, N-((8S,11S)-4^4-methyl-7,10,13-trioxo-8-phenethyl-3-oxa-6,9-diaza-1(3,1)-piperidina-4(1,3)-benzenacyclotridecaphane-11-yl)acetamide], the IC50 is 100 to 500 nM in assay [1] and 1 to 5 µM in assay [2].
The corresponding values for `Cc1cc2cc(c1C)CNC(=O)[C@H](CCc1ccccc1)NC(=O)[C@@H](NC(=O)OCc1ccccc1)CCCC(=O)NCCCCO2` [Compound 354, benzyl ((12S,15S)-14,15-dimethyl-8,13,16-trioxo-15-phenethyl-2-oxa-7,14,17-triaza-1(1,3)-benzenacyclooctadecaphane-12-yl)carbamate] are 100 to 500 nM and under 0.1 µM.
The corresponding values for `CC(=O)N[C@H]1CC(=O)N(C)CCCOc2ccc(C)c(c2)CNC(=O)[C@H](CCc2ccccc2)NC1=O` [Compound 256, N-((9S,12S)-1^4,6-dimethyl-7,10,13-trioxo-12-phenethyl-2-oxa-6,11,14-triaza-1(1,3)-benzenacyclopentadecaphane-9-yl)acetamide] are 100 to 500 nM and over 5 µM.
With `CC(=O)N[C@H]1CC(=O)NCCCCOc2ccc(C)c(c2)CNC(=O)[C@H](CCc2ccccc2)NC1=O` [Compound 168, N-((10S,13S)-1^4-methyl-8,11,14-trioxo-13-phenethyl-2-oxa-7,12,15-triaza-1(1,3)-benzenacyclohexadecaphane-10-yl)acetamide], the IC50 in assay [4] was over 5 µM; in assay [5], 1000 to 5000 nM; in assay [1], 100 to 500 nM; in assay [2], 1 to 5 µM.
Regarding `CC(=O)N[C@H]1CC(=O)N2CC(COc3ccc(C)c(c3)CNC(=O)[C@H](CCc3ccccc3)NC1=O)C2` [Compound 259, N-((8S,11S)-4^4-methyl-7,10,13-trioxo-8-phenethyl-3-oxa-6,9-diaza-1(3,1)-azetidina-4(1,3)-benzenacyclotridecaphane-11-yl)acetamide], the IC50 in assay [1] was 100 to 500 nM; in assay [2] it was over 5 µM.
Turning to `CC(=O)N[C@H]1CC(=O)N2CCCC(C2)Oc2ccc(C)c(c2)CNC(=O)[C@H](CCc2ccccc2)NC1=O` (stereo partly drawn) [Compound 255, N-((7S,10S)-3^4-methyl-6,9,12-trioxo-7-phenethyl-2-oxa-5,8-diaza-1(3,1)-piperidina-3(1,3)-benzenacyclododecaphane-10-yl)acetamide], the IC50 is 100 to 500 nM in assay [1], over 5000 nM in assay [3] and over 5 µM in assay [2].
Regarding `CC(=O)N[C@H]1CC(=O)NCCCOc2ccc(C)c(c2)CNC(=O)[C@H](CCc2ccccc2)NC1=O` [Compound 253, N-((9S,12S)-1^4-methyl-7,10,13-trioxo-12-phenethyl-2-oxa-6,11,14-triaza-1(1,3)-benzenacyclopentadecaphane-9-yl)acetamide], the IC50 was 100 to 500 nM in assay [1] and over 5 µM in assay [2].
